Blank lines part the entries; values can stand above or below the molecule they belong to.
Columns and labels:
Mus musculus = experiment: In vivo inhibition of BACE1 in C57B1/6J mouse assessed as reduction in amyloidbeta 40 level in brain at 30 mg/kg, po measured at 4 hrs post dose by ELISA relative to control; assay type: functional
Beta-secretase 1 [1] = target: T1, Beta-secretase 1 (Homo sapiens, UniProt P56817); experiment: Inhibition of BACE1 (unknown origin) assessed as reduction in amyloidbeta 40 level after 24 hrs by cell-based sandwich ELISA
Cathepsin D = Cathepsin D (Homo sapiens, UniProt P07339); experiment: Inhibition of recombinant Cathepsin D (unknown origin) expressed in CHO cells preincubated for 1 hr followed by substrate addition and measured after 1 hr by FRET assay; assay type: cell-based
Beta-secretase 1 [2] = target: T1, Beta-secretase 1; experiment: Inhibition of human BACE1 expressed in Escherichia coli preincubated for 1 hr followed by Mca-Ser-Glu-Val-Asn-Leu-Asp-Ala-Glu-Phe-Lys(Dnp)-OH substrate addition by spectroflurimetric assay
[3] = Dissociation constant, pKa of the compound; assay type: physicochemical
Beta-secretase 1 [4] = target: T1, Beta-secretase 1; experiment: Inhibition of BACE1 in HEK293 cells harboring APP assessed as reduction in amyloidbeta 40 level incubated for 18 to 20 hrs by AlphaLISA Assay; assay type: cell-based
Beta-secretase 1 [5] = target: T1, Beta-secretase 1; experiment: Inhibition of BACE1 in human SH-SY5Y cells expressing betaAPP assessed as reduction in amyloidbeta (1 to 40 residues) level incubated for 24 hrs by HTRF assay; assay type: cell-based
Beta-secretase 2 [6] = target: T2, Beta-secretase 2 (Homo sapiens, UniProt Q9Y5Z0); experiment: Inhibition of human BACE2 preincubated for 30 mins followed by QSY7- EISEVNLDAEFC-Eu-amide substrate addition and measured after […] by HTRF assay
T2 sequence (Q9Y5Z0 whole entry): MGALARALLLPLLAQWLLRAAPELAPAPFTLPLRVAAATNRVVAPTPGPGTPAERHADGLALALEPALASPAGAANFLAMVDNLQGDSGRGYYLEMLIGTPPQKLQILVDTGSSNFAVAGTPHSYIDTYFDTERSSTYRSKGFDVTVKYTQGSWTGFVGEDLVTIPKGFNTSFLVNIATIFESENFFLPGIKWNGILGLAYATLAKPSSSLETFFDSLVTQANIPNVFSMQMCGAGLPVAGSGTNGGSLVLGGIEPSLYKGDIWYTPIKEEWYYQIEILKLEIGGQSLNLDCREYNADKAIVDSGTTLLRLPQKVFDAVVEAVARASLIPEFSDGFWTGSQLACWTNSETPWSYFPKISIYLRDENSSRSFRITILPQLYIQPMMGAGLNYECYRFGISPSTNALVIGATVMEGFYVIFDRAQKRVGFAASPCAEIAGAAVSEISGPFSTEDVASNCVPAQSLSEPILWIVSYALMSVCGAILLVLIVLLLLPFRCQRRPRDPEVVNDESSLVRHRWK

Beta-secretase 1 [7] = target: T1, Beta-secretase 1; experiment: Inhibition of human BACE1 catalytic domain preincubated for 30 mins followed by QSY7-EISEVNLDAEFC-Europium-amide substrate addition and measured after […] by HTRF assay
Beta-secretase 1 [8] = target: T1, Beta-secretase 1; experiment: Inhibition of BACE1 (unknown origin)
Beta-secretase 2 [9] = target: T2, Beta-secretase 2; experiment: Inhibition of BACE2 (unknown origin)
Beta-secretase 1 [10] = target: T1, Beta-secretase 1; experiment: Inhibition of BACE1 (unknown origin) by cell-based assay
P-glycoprotein (ABCB1) = P-glycoprotein (ABCB1) (Homo sapiens, UniProt P08183); experiment: Substrate activity at p-glycoprotein (unknown origin) assessed as efflux ratio; settings: not told
Beta-secretase 1 [11] = target: Beta-secretase 1 (Rattus norvegicus, UniProt P56819); experiment: Inhibition of BACE1 in Wistar rat neuronal cell suspension after 1 to 3 days by ELISA
Beta-secretase 1 [12] = target: T1, Beta-secretase 1; experiment: Inhibition of human BACE1 using Biotin-XSEVNLDAEFRHDSGC as substrate incubated for 2 hrs by fluorescence method
Beta-secretase 1 [13] = target: T1, Beta-secretase 1; experiment: Inhibition of human BACE1 using Biotin-XSEVNLDAEFRHDSGC as substrate incubated for […] by fluorescence method
Beta-secretase 2 [14] = target: T2, Beta-secretase 2; experiment: Inhibition of C-terminal His6-tagged human BACE2 expressed in mammalian expression system preincubated for 1 hr followed by substrate addition and measured after 1 hr by FRET assay
Beta-secretase 1 [15] = target: T1, Beta-secretase 1; experiment: Inhibition of C-terminal His6-tagged human BACE1 expressed in mammalian expression system preincubated for 1 hr followed by substrate addition and measured after 1 hr by FRET assay
Beta-secretase 2 [16] = target: T2, Beta-secretase 2; experiment: Inhibition of BACE2 (unknown origin) incubated for 450 mins using APP swedish mutant as substrate by FRET assay
Beta-secretase 1 [17] = target: T1, Beta-secretase 1; experiment: Inhibition of BACE1 (unknown origin) incubated for 120 mins using APP swedish mutant as substrate by FRET assay
Beta-secretase 1 [18] = target: T1, Beta-secretase 1; experiment: Inhibition of BACE1 in human SK-N-BE(2) cells expressing human APP695 assessed as reduction in amyloidbeta (1 to 42 residues) level incubated for 18 hrs by sandwich ELISA; assay type: cell-based

T1 sequence (P56817 whole entry): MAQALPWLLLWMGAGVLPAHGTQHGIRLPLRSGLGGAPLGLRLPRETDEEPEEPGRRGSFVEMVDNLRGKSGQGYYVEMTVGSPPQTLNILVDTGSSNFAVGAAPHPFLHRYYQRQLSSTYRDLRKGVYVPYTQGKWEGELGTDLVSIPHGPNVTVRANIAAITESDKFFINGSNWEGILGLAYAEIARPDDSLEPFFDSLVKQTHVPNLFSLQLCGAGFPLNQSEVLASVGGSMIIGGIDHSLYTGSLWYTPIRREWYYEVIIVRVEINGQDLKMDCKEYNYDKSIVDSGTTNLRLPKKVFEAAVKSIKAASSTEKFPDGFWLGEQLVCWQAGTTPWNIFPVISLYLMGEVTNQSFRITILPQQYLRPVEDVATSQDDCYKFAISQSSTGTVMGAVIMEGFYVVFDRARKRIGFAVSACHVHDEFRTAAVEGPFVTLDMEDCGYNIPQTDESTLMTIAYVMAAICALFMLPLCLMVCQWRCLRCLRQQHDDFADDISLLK
Chain of P-glycoprotein (ABCB1) (P08183 whole entry): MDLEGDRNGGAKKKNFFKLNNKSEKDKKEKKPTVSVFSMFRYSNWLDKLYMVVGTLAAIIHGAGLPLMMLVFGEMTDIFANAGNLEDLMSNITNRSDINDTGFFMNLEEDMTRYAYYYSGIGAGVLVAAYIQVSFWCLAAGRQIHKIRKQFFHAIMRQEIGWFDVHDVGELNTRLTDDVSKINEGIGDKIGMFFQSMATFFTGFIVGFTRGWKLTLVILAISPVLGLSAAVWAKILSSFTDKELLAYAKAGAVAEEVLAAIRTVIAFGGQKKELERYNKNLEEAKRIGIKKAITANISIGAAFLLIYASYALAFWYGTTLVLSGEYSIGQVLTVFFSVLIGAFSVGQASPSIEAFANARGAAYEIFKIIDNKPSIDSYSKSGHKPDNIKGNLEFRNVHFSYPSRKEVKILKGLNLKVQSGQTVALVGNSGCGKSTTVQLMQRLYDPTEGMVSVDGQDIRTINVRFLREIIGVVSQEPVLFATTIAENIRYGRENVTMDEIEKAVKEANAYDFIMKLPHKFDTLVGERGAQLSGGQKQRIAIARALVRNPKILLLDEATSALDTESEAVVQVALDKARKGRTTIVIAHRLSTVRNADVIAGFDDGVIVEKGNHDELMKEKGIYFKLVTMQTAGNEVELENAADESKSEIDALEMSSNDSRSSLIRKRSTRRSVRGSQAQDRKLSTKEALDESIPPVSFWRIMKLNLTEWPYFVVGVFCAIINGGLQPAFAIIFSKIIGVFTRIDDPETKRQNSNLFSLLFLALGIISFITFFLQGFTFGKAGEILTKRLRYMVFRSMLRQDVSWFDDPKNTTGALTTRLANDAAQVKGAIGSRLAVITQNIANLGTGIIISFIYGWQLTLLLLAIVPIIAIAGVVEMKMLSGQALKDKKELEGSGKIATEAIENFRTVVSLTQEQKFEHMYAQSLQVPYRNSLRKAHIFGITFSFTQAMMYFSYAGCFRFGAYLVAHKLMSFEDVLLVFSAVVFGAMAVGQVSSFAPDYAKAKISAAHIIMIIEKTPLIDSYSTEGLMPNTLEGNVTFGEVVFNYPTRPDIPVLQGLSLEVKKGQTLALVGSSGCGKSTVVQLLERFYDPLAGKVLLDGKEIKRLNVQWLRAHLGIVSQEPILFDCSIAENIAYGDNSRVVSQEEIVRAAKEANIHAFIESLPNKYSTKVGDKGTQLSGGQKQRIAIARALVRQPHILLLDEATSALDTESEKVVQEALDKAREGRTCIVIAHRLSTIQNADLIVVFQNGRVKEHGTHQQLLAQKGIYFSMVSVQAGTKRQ
Chain of Beta-secretase 1 (Rattus norvegicus, UniProt P56819) (P56819 whole entry): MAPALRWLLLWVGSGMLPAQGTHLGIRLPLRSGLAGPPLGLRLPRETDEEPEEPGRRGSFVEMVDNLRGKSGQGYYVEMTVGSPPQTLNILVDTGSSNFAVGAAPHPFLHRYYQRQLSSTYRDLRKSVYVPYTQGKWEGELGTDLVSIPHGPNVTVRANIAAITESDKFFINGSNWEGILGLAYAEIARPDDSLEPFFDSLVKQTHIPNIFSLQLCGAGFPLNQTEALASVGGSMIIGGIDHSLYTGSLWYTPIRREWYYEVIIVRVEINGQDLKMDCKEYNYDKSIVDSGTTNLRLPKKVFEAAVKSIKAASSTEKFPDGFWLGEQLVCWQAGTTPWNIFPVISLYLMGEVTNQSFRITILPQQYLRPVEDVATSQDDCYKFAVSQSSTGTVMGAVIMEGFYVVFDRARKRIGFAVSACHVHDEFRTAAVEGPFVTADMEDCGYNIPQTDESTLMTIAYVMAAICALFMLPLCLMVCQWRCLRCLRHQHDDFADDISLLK
Chain of Cathepsin D (P07339 65-162 limits assumed): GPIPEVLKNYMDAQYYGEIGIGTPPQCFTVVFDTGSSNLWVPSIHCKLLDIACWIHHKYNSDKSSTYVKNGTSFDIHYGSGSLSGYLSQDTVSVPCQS
Chain of Cathepsin D (P07339 169-412 limits assumed): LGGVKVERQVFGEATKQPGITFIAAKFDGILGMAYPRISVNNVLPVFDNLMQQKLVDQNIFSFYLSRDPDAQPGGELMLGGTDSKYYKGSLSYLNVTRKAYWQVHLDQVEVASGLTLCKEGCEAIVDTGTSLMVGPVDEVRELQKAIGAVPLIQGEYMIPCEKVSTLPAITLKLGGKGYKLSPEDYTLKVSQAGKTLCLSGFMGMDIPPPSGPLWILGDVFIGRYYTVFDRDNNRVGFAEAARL

SMILES: Cc1cc(C#N)cnc1C(=O)Nc1ccc(F)c([C@@]2(C)N=C(N)C(C)(C)[S@@]3(=O)=NCC[C@@H]23)c1
inhibition in vivo at 30 mg/kg (Mus musculus): 86%

SMILES: Cc1cc(Cl)cnc1C(=O)Nc1ccc2c(c1)[C@@]1(C)N=C(N)C(C)(C)S(=O)(=O)[C@@H]1CCO2
IC50 (Beta-secretase 1 [1]): 6 nM
IC50 (Cathepsin D): > 100000 nM

SMILES: Cc1cc(C#N)cnc1C(=O)Nc1ccc(F)c([C@]2(C)CS3(=O)=NCCCCC3(C)C(N)=N2)c1 (some centres not stated)
inhibition in vivo at 30 mg/kg (Mus musculus): 52%
IC50 (Beta-secretase 1 [4]): 0.2 nM

SMILES: NC1=N[C@@]2(COc3ccc(NC(=O)c4cnc(OCC(F)(F)F)cn4)cc32)[C@H](C(F)(F)F)C1
IC50 (Beta-secretase 1 [2]): 7080 nM

SMILES: CN1C(=N)N[C@]2(C)c3cc(NC(=O)c4ccc(C#N)cn4)ccc3OCC[C@@H]2S1(=O)=O (relative stereo)
Ki (Beta-secretase 2 [6]): 303 nM
Ki (Beta-secretase 1 [7]): 47 nM

SMILES: N#Cc1ccc(C(=O)Nc2ccc(F)c([C@]34COC[C@H]3n3cccc3C(N)=N4)c2)nc1
IC50 (Beta-secretase 1 [8]): 26.3 nM
IC50 (Beta-secretase 2 [9]): 120 nM
IC50 (Beta-secretase 1 [10]): 15.5 nM

SMILES: CN1CC2(C1)C(=N)N[C@](C)(c1cc(NC(=O)c3ccc(Cl)cn3)ccc1F)CS2(=O)=O
Ki (Beta-secretase 2 [6]): 1.2 nM
Ki (Beta-secretase 1 [7]): 6.1 nM

SMILES: CC(F)(F)[C@@H]1C[C@@](C)(c2cc(NC(=O)c3ccc(OCF)cn3)ccc2F)N=C(N)S1
efflux ratio (P-glycoprotein (ABCB1)): 1.6
IC50 (Beta-secretase 1 [8]): 6.13 nM
IC50 (Beta-secretase 2 [9]): 0.5 nM

SMILES: C[C@@]1(c2nc(NC(=O)c3ccc(C#N)cn3)ccc2F)C[C@@H](C(F)(F)F)OC(N)=N1
IC50 (Beta-secretase 1 [4]): 3.4 nM

SMILES: COc1cnc(C(=O)Nc2ccc(F)c([C@]34CO[C@H](C(F)F)[C@H]3CSC(N)=N4)c2)cn1
IC50 (Beta-secretase 1 [11]): 4 nM

SMILES: C[C@@]1(c2cc(NC(=O)c3ccc(OCF)cn3)ccc2F)C[C@@H](C(F)(F)F)SC(N)=N1
efflux ratio (P-glycoprotein (ABCB1)): 0.7
IC50 (Beta-secretase 1 [8]): 5.67 nM
IC50 (Beta-secretase 2 [9]): 1 nM

SMILES: C[C@H]1SC(N)=N[C@](C)(c2cc(NC(=O)c3ccc(OC(F)F)cn3)ccc2F)[C@H]1F
IC50 (Beta-secretase 1 [5]): 1.2 nM
IC50 (Beta-secretase 1 [12]): 4.77 nM

SMILES: NC1=N[C@](CF)(c2cc(NC(=O)c3cnc(Cl)cn3)cc(F)c2F)[C@H]2[C@@H](S1)C2(F)F
IC50 (Beta-secretase 2 [14]): 3.02 nM
IC50 (Beta-secretase 1 [1]): 11.2 nM
IC50 (Beta-secretase 1 [15]): 15.2 nM

SMILES: CN1C(=N)N[C@]2(C)c3cc(NC(=O)c4ccc(C#N)cn4)ccc3OCC[C@H]2S1(=O)=O (relative stereo)
Ki (Beta-secretase 2 [6]): 14 nM
Ki (Beta-secretase 1 [7]): 1 nM

The next lines start with the values.

IC50 (Beta-secretase 1 [2]): 182 nM
pKa [3]: 9
SMILES: C[C@]1(c2cc(NC(=O)c3ccc(C#N)cn3)ccc2F)N=C(N)C[C@H]1C(F)(F)F

IC50 (Beta-secretase 1 [5]): 0.615 nM
SMILES: C[C@]1(c2cc(NC(=O)c3ccc(C#N)cn3)ccc2F)N=C(N)OCC12CC(F)(F)C2

IC50 (Beta-secretase 1 [4]): 49 nM
SMILES: C[C@@]1(c2nc(NC(=O)c3ccc(C#N)cn3)ccc2F)CS2(=O)=NCCCCN2C(N)=N1 (some centres not stated)

IC50 (Beta-secretase 1 [8]): 3.9 nM
IC50 (Beta-secretase 1 [10]): 13.2 nM
SMILES: Cn1cc2n(c1=O)C[C@@](C)(c1cc(NC(=O)c3ccc(C#N)cn3)ccc1F)N=C2N

IC50 (Beta-secretase 1 [5]): 2 nM
SMILES: CC1(c2cc(NC(=O)c3ccc(C#N)cn3)ccc2F)Cc2ncc(F)cc2C(N)=N1 (configuration not stated)

IC50 (Beta-secretase 1 [13]): 22.8 nM
SMILES: C#C[C@]1(c2cc(NC(=O)c3ccc(C#N)cn3)ccc2F)N=C(N)O[C@@H]2C[C@@H]21

IC50 (Beta-secretase 2 [16]): 66 nM
IC50 (Beta-secretase 1 [17]): 9.8 nM
IC50 (Beta-secretase 1 [18]): 6.9 nM
SMILES: COc1ccc(C(=O)Nc2ccc(F)c([C@]3(C)CC[C@@](C)(C#N)C(N)=N3)c2)nc1

Ki (Beta-secretase 2 [6]): 1 nM
Ki (Beta-secretase 1 [7]): 3 nM
SMILES: CN=[S@@]1(=O)C[C@@](C)(c2cc(NC(=O)c3ccc(Cl)cn3)ccc2F)N=C(N)C1(C)C

IC50 (Beta-secretase 1 [4]): 2 nM
SMILES: Cc1cc(C#N)cnc1C(=O)Nc1ccc(F)c([C@]2(C)CS3(=O)=NCCCCN3C(N)=N2)c1 (some centres not stated)

Reference: ChEMBL document CHEMBL4342403, “New evolutions in the BACE1 inhibitor field from 2014 to 2018” (Bioorg Med Chem Lett, 2019)
